Results: patent US6228836A, “Permucous preparation” (Mitsubishi-Tokyo Pharmaceuticals, Inc., priority 1997, dated 2001)

Set-up: species or system rats
Details: rat, in vivo
Description: Eight-week-old female rats were used, with five per group. The rats were administered 100 μL/kg of the test sample into the nasal cavities once a day, for 7 continuous days. On the 8th day the nasal cavities were extracted, and after dividing them into 3 parts from the nasal cavity opening to the deep end of the nasal cavity, they were fixed with formalin to prepare specimens. After 10-14 days of fixing, a histopathological examination was made of the state of the mucosa, exudation and any bleeding.
Mild irritation was judged when abnormalities were found in the nasal mucosa at sections near the nasal cavity opening, and moderate to severe irritation was judged when the sections where abnormalities were found were further to the deep end. Moderate or greater irritation was also judged when degeneration, ablation, exudation or bleeding was found on the nasal mucosa epithelium at sections near the nasal cavity opening.
As controls there were used physiological saline and commercially available desmopressin (Kyowa Hakko Kogyo, KK.)

SMILES	Nasal cavity mucosa irritation: Mild	Nasal cavity mucosa irritation: Moderate	Nasal cavity mucosa irritation: Normal	Nasal cavity mucosa irritation: Severe	Nasal mucosa irritation, histopathological finding / judgement (in words)
NC(=O)CC[C@@H]1NC(=O)[C@H](Cc2ccccc2)NC(=O)[C@H](Cc2ccc(O)cc2)NC(=O)CCSSC[C@@H](C(=O)N2CCC[C@H]2C(=O)N[C@H](CCCN=C(N)N)C(=O)NCC(N)=O)NC(=O)[C@H](CC(N)=O)NC1=O [Desmopressin, desmopressin]	0	0	5	0	No irritation
C[C@H](CCC(=O)O)[C@H]1CC[C@H]2[C@@H]3CC[C@@H]4C[C@H](O)CC[C@]4(C)[C@H]3C[C@H](O)[C@]12C [sodium deoxycholate]	–	–	–	–	irritating effect on the nasal cavity mucosa
